Values quoted from earlier work, collected in US10015963B2, “Microemulsions of lipidated glycines and phenoxy ethanol for preservation of personal care products” (GALAXY SURFACTANTS LTD., priority 2014, dated 2018).

Experiments:
[1] = carboxyl group
[2] = at room temperature

pKa [1]	SMILES	phenoxy ethanol solubilized in water [2] [%]
4.05	CCCCCCCC(=O)NCC(=O)O [capryloyl glycine, N-capryloyl glycine]	–
–	OCCOc1ccccc1 [phenoxy ethanol, 2-phenoxy ethanol]	2.3
